# Entries after “also recorded” stand apart in the source; their conditions may differ. No end group written: not given here.
# Legend:
# Format in all cases: cell-based
# [1] = test system: HT29 human colorectal adenocarcinoma cells; assay: MTT cell proliferation assay, serum-free; settings: absence of serum, 72 hour MTT assay, FIG. 5c
# Protocol: (§1) HT29 (colorectal adenocarcinoma) (ATCC HTB-38; Manassas, Va.). SW480 colon carcinoma cells (ATCC) and MKN45 gastric carcinoma cells (Cancer Research Laboratory, University of New South Wales, Sydney, Australia) were maintained in DMEM (Invitrogen, Carlsbad, Calif.) containing 10% heat inactivated, filtered, fetal bovine serum (FBS; Invitrogen) and 20 mM HEPES buffer. Cell culture was carried out in an incubator set at 37° C. in 5% CO2 in air. Cells were grown to approximately 80% confluence in tissue culture flasks before being recovered from the substrate by trypsinisation. Briefly, resident culture media was removed and cells washed twice with sterile phosphate-buffered saline solution. A volume of 10× trypsin in EDTA (to provide 0.5% trypsin w/w) was added in sufficient quantity to cover the cells. When cells had sufficiently detached from the substrate, trypsin activity was stopped by the addition of 10% FBS in DMEM. Detached cells were transferred to a conical sterile tube and the suspended cells passaged ten times up and down through a 10 ml pipette to produce a single cell suspension suitable for counting. The number of viable cells was determined using a viability stain (Trypan blue) and counting using a haemocytometer.
# (§2) The MTT cell proliferation assay measures cell proliferation rate and, in instances where cell viability is compromised, the assay indicates a comparative reduction in cell viability.
# (§3) Single cell suspensions of viable trypsinised cells were seeded into 96-well tissue culture plates at a density of 2×10^3 cells per well in a volume of 100 ul of culture media with or without serum. A set of triplicate wells was prepared for each concentration of compound being tested. […]
# (§4) Appropriate concentrations of compound were prepared by dilution of freshly prepared sterile 1 mM stock solutions in normal saline into cell culture media to give a final culture-well volume of 200 ul. […] Plates were gently vortexed to complete solubilisation of crystalline material and absorbance read at 540 nm using a microplate reader. […]
# [2] = test system: MKN45 human gastric carcinoma cells; assay: MTT cell proliferation assay, serum-containing; settings: presence of serum, 48 hour MTT assay, FIG. 6
# Protocol: as §1, with “Detached cells were transferred to a conical sterile tube and the suspended cells passaged ten times up and down through a 10 ml pipette to produce a single cell suspension suitable for counting.” left out, “haemocytometer. […]” for “haemocytometer.”
# as §4
# [3] = test system: SW480 human colon carcinoma cells; assay: MTT cell proliferation assay, serum-containing; settings: presence of serum, 48 hour MTT assay, FIG. 6
# Protocol: as §1, with “Detached cells were transferred to a conical sterile tube and the suspended cells passaged ten times up and down through a 10 ml pipette to produce a single cell suspension suitable for counting.” left out, “haemocytometer. […]” for “haemocytometer.”
# as §4
# [4] = test system: HT29 human colorectal adenocarcinoma cells; assay: MTT cell proliferation assay, serum-containing
# Protocol: as §1, §2, §3, §4
substance,measurement,setting,value
"H-DDVRRRVQQETTGH-COOH (H-DDVRRRVQQETTGH-OH) [14C, 14 mer derivative of 22C containing the TAT-like motif]",inhibition of growth of HT29 colon cancer cells,[1],inhibited the growth
RGRAKDPL [8C],inhibition of growth of HT29 colon cancer cells,[1],inhibited the growth
DDVRRRVQQETTGHRGRAKDPL (listed as Brevibacterium linens) [22C],inhibition of proliferation of MKN45 cells,[2],inhibit proliferation of SW480 and MKN45 cells to a similar degree as for HT29 cells
same,inhibition of proliferation of SW480 cells,[3],inhibit proliferation of SW480 and MKN45 cells to a similar degree as for HT29 cells
same,depression of in vitro cell proliferation of colon cancer cells,"[4]; MTT assay containing serum (24 hour assay), concentration of 35 uM, FIG. 5d",up to 54%
same,effectiveness compared with other peptides,"[4]; serum-supplemented culture media, FIG. 5d and FIG. 5a",more effective than peptide 14C and peptide 8C; also recorded: more effective than the 24-NH2 peptide
same,inhibition of growth of HT29 colon cancer cells,[1],inhibited the growth
"24-NH2: peptide consisting of amino acids 266-289 of GenBank Accession No. O68604; extended version of peptide 22C, synthesized and amidated (DDVRRRVQQETTGHRGRAKDPLYR-NH2; listed as Brevibacterium linens)",depression of in vitro cell proliferation of colon cancer cells,"[4]; MTT assay (72 hours), serum-containing, concentration of 50 μM, FIG. 5a",up to 36%

# Source: US8653236B2, “Therapeutic agents” (Inter-K Pty Limited, priority 2008, dated 2014)
